Assay results reported in patent US20260022142A1, “MACROCYCLIC IMMUNOMODULATORS” (Bristol-Myers Squibb Company, priority 2022, published 2026).
Bridge positions count the residues as written; N and C are the ends. Square brackets hold non-standard residues; d marks the D form. Peptide text beside a SMILES is read from it. * marks the point of attachment. ξ: configuration not given here. Bip = N[C@@H](Cc1ccc(-c2ccccc2)cc1)C(=O)O; Tyr(3-F) = N[C@@H](Cc1ccc(O)c(F)c1)C(=O)O; Tyr(3-Me) = Cc1cc(C[C@H](N)C(=O)O)ccc1O; Phe(3-Me) = Cc1cccc(C[C@H](N)C(=O)O)c1; Cha = N[C@@H](CC1CCCCC1)C(=O)O; hSer = N[C@@H](CCO)C(=O)O; Carboxymethyl = O=C(O)C*; Orn = NCCC[C@H](N)C(=O)O; Aun = NCCCCCCCCCCC(=O)O; Dab = NCC[C@H](N)C(=O)O; Dap = NC[C@H](N)C(=O)O; ξS = NC(CO)C(=O)O

Target: T1, PD-1/PD-L1 interaction (PE-labeled human PD-L1-Ig binding to Jurkat cell line over-expressing human PD-1) (Homo sapiens, UniProt Q15116)
T1 construct: expressed in transfected cells; host or cells: Jurkat
Test: Jurkat-PD-1 Cell Binding High-Content Screening Assay (CBA)
Type: cell-based
Details: Jurkat cell line over-expressing human PD-1; PE-labeled PD-L1-Ig 20 nM final; read-out: Jurkat hPD1-PDL1 IC50
Outline: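 Binding of fluorescent PD-L1-Ig (phycoerythrin on Ig tag, 20 nM final, 1 h) measured by high-content imaging of fixed, Hoechst-counterstained Jurkat-hPD-1 cells. Compound added 2 h at 37° C beforehand, in DMEM with 10% fetal calf serum.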

T1 sequence (Q15116 25-288): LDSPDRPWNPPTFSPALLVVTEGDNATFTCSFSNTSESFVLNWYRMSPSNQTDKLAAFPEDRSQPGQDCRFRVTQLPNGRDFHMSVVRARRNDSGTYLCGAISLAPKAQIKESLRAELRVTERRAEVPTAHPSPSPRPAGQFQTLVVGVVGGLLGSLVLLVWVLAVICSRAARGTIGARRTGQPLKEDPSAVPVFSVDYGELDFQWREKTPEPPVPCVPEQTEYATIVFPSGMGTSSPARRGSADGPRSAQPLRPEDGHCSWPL

| Structure (SMILES) | IC50 [nM] |
| --- | --- |
| Cc1cccc(C[C@@H]2NC(=O)[C@H](CC(=O)O)NC(=O)[C@H](Cc3ccc(OCC(=O)O)cc3)NC(=O)[C@H](CCCNC(=N)N)NC(=O)CSC[C@@H](C(=O)N[C@@H](CCN)C(=O)NCCCCCCCCCCC(=O)O)NC(=O)[C@H](CCO)NC(=O)[C@H](C(C)C)NC(=O)[C@H](CC3CCCCC3)NC(=O)[C@H](CCN)NC(=O)[C@@H](CC(C)C)NC(=O)[C@H](CCCN)NC(=O)[C@H](Cc3ccc(O)cc3)NC(=O)[C@H](Cc3ccc(-c4ccccc4)cc3)NC(=O)[C@H](Cc3ccc(OCC(=O)O)cc3)NC2=O)c1 [Compound 2095] ({CH2CO}-RY(Carboxymethyl)D[Phe(3-Me)]Y(Carboxymethyl)[Bip]Y[Orn][dL][Dab][Cha]V[hSer]C[Dab][Aun]-OH; thioether N-14) | 9.5 |
| Cc1cc(C[C@@H]2NC(=O)[C@H](CC(=O)O)NC(=O)[C@H](Cc3ccc(OCC(=O)O)cc3)NC(=O)[C@H](CN)NC(=O)CSC[C@@H](C(=O)N[C@@H](CCN)C(=O)NCCCCCCCCCCC(=O)O)NC(=O)[C@H](CCO)NC(=O)[C@H](C(C)C)NC(=O)[C@H](CC3CCCCC3)NC(=O)[C@H](CCN)NC(=O)[C@@H](CC(C)C)NC(=O)[C@H](CCCN)NC(=O)[C@H](Cc3ccc(OCC(=O)O)cc3)NC(=O)[C@H](Cc3ccc(-c4ccccc4)cc3)NC(=O)[C@H](C(C)C)NC2=O)ccc1O [Compound 2096] ({CH2CO}-[Dap]Y(Carboxymethyl)D[Tyr(3-Me)]V[Bip]Y(Carboxymethyl)[Orn][dL][Dab][Cha]V[hSer]C[Dab][Aun]-OH; thioether N-14) | 36.5 |
| Cc1cccc(C[C@@H]2NC(=O)[C@H](CC(=O)O)NC(=O)[C@H](Cc3ccc(OCC(=O)O)cc3)NC(=O)[C@H](CN)NC(=O)CSC[C@@H](C(=O)N[C@@H](CCN)C(=O)NCCCCCCCCCCC(=O)O)NC(=O)[C@@H](CO)NC(=O)[C@H](C(C)C)NC(=O)[C@H](CC3CCCCC3)NC(=O)[C@H](CCN)NC(=O)[C@@H](CC(C)C)NC(=O)[C@H](CCCN)NC(=O)[C@H](Cc3ccc(OCC(=O)O)cc3)NC(=O)[C@H](Cc3ccc(-c4ccccc4)cc3)NC(=O)[C@H](C(C)C)NC2=O)c1 [Compound 2097] ({CH2CO}-[Dap]Y(Carboxymethyl)D[Phe(3-Me)]V[Bip]Y(Carboxymethyl)[Orn][dL][Dab][Cha]V[dS]C[Dab][Aun]-OH; thioether N-14) | 38.8 |
| Cc1cccc(C[C@@H]2NC(=O)[C@H](CC(=O)O)NC(=O)[C@H](Cc3ccc(OCC(=O)O)cc3)NC(=O)[C@H](CN)NC(=O)CSC[C@@H](C(=O)N[C@@H](CCN)C(=O)NCCCCCCCCCCC(=O)O)NC(=O)C(CO)NC(=O)[C@H](C(C)C)NC(=O)[C@H](CC3CCCCC3)NC(=O)[C@H](CCN)NC(=O)[C@@H](CC(C)C)NC(=O)[C@H](CCCN)NC(=O)[C@H](Cc3ccc(O)cc3)NC(=O)[C@H](Cc3ccc(-c4ccccc4)cc3)NC(=O)[C@H](C(C)C)NC2=O)c1 (stereo partly drawn) [Compound 2098] ({CH2CO}-[Dap]Y(Carboxymethyl)D[Phe(3-Me)]V[Bip]Y[Orn][dL][Dab][Cha]V[ξS]C[Dab][Aun]-OH; thioether N-14) | 53.4 |
| Cc1cccc(C[C@@H]2NC(=O)[C@H](CC(=O)O)NC(=O)[C@H](Cc3ccc(OCC(=O)O)cc3)NC(=O)[C@H](CN)NC(=O)CSC[C@@H](C(=O)N[C@@H](CCN)C(=O)NCCCCCCCCCCC(=O)O)NC(=O)[C@H](CCO)NC(=O)[C@H](C(C)C)NC(=O)[C@H](CC3CCCCC3)NC(=O)[C@H](CCN)NC(=O)[C@@H](CC(C)C)NC(=O)[C@H](CCCN)NC(=O)[C@H](Cc3ccc(OCC(=O)O)cc3)NC(=O)[C@H](Cc3ccc(-c4ccccc4)cc3)NC(=O)[C@H](C(C)C)NC2=O)c1 [Compound 2099] ({CH2CO}-[Dap]Y(Carboxymethyl)D[Phe(3-Me)]V[Bip]Y(Carboxymethyl)[Orn][dL][Dab][Cha]V[hSer]C[Dab][Aun]-OH; thioether N-14) | 18 |
| Cc1cccc(C[C@@H]2NC(=O)[C@H](CC(=O)O)NC(=O)[C@H](Cc3ccc(OCC(=O)O)cc3)NC(=O)[C@H](CN)NC(=O)CSC[C@@H](C(=O)N[C@@H](CCN)C(=O)NCCCCCCCCCCC(=O)O)NC(=O)[C@H](CCO)NC(=O)[C@H](C(C)C)NC(=O)[C@H](CC3CCCCC3)NC(=O)[C@H](CCN)NC(=O)[C@@H](CC(C)C)NC(=O)[C@H](CCCN)NC(=O)[C@H](Cc3ccc(OCC(=O)O)cc3)NC(=O)[C@H](Cc3ccc(-c4ccccc4)cc3)NC(=O)[C@H](Cc3ccc(O)cc3)NC2=O)c1 [Compound 2100] ({CH2CO}-[Dap]Y(Carboxymethyl)D[Phe(3-Me)]Y[Bip]Y(Carboxymethyl)[Orn][dL][Dab][Cha]V[hSer]C[Dab][Aun]-OH; thioether N-14) | 13.9 |
| Cc1cccc(C[C@@H]2NC(=O)[C@H](CC(=O)O)NC(=O)[C@H](Cc3ccc(OCC(=O)O)cc3)NC(=O)[C@H](CN)NC(=O)CSC[C@@H](C(=O)N[C@@H](CCN)C(=O)NCCCCCCCCCCC(=O)O)NC(=O)[C@H](CCO)NC(=O)[C@H](C(C)C)NC(=O)[C@H](CC3CCCCC3)NC(=O)[C@H](CCN)NC(=O)[C@@H](CC(C)C)NC(=O)[C@H](CCCN)NC(=O)[C@H](Cc3ccc(OCC(=O)O)cc3)NC(=O)[C@H](Cc3ccc(-c4ccccc4)cc3)NC(=O)[C@H](Cc3ccc(OCC(=O)O)cc3)NC2=O)c1 [Compound 2101] ({CH2CO}-[Dap]Y(Carboxymethyl)D[Phe(3-Me)]Y(Carboxymethyl)[Bip]Y(Carboxymethyl)[Orn][dL][Dab][Cha]V[hSer]C[Dab][Aun]-OH; thioether N-14) | 16.2 |
| Cc1cccc(C[C@@H]2NC(=O)[C@H](CC(=O)O)NC(=O)[C@H](Cc3ccc(OCC(=O)O)cc3)NC(=O)[C@H](CN)NC(=O)CSC[C@@H](C(=O)N[C@@H](CCN)C(=O)NCCCCCCCCCCC(=O)O)NC(=O)[C@H](CCO)NC(=O)[C@H](C(C)C)NC(=O)[C@H](CC3CCCCC3)NC(=O)[C@H](CCN)NC(=O)[C@@H](CC(C)C)NC(=O)[C@H](CCCN)NC(=O)[C@H](Cc3ccc(O)cc3)NC(=O)[C@H](Cc3ccc(-c4ccccc4)cc3)NC(=O)[C@H](Cc3ccc(OCC(=O)O)cc3)NC2=O)c1 [Compound 2102] ({CH2CO}-[Dap]Y(Carboxymethyl)D[Phe(3-Me)]Y(Carboxymethyl)[Bip]Y[Orn][dL][Dab][Cha]V[hSer]C[Dab][Aun]-OH; thioether N-14) | 29.1 |
| CC(C)C[C@H]1NC(=O)[C@H](CCCN)NC(=O)[C@H](Cc2ccc(O)cc2)NC(=O)[C@H](Cc2ccc(-c3ccccc3)cc2)NC(=O)[C@H](Cc2ccc(O)cc2)NC(=O)[C@H](Cc2ccc(O)c(F)c2)NC(=O)[C@H](CC(=O)O)NC(=O)[C@H](Cc2ccc(OCC(=O)O)cc2)NC(=O)[C@H](CCCNC(=N)N)NC(=O)CSC[C@@H](C(=O)N[C@@H](CCN)C(=O)NCCCCCCCCCCC(=O)O)NC(=O)[C@H]([C@@H](C)O)NC(=O)[C@H](C(C)C)NC(=O)[C@H](CC2CCCCC2)NC(=O)[C@H](CCN)NC1=O [Compound 2103] ({CH2CO}-RY(Carboxymethyl)D[Tyr(3-F)]Y[Bip]Y[Orn][dL][Dab][Cha]VTC[Dab][Aun]-OH; thioether N-14) | 69.9 |
| Cc1cc(C[C@@H]2NC(=O)[C@H](CC(=O)O)NC(=O)[C@H](Cc3ccc(OCC(=O)O)cc3)NC(=O)[C@H](CCCNC(=N)N)NC(=O)CSC[C@@H](C(=O)N[C@@H](CCN)C(=O)NCCCCCCCCCCC(=O)O)NC(=O)[C@H]([C@@H](C)O)NC(=O)[C@H](C(C)C)NC(=O)[C@H](CC3CCCCC3)NC(=O)[C@H](CCN)NC(=O)[C@@H](CC(C)C)NC(=O)[C@H](CCCN)NC(=O)[C@H](Cc3ccc(O)cc3)NC(=O)[C@H](Cc3ccc(-c4ccccc4)cc3)NC(=O)[C@H](Cc3ccc(O)cc3)NC2=O)ccc1O [Compound 2104] ({CH2CO}-RY(Carboxymethyl)D[Tyr(3-Me)]Y[Bip]Y[Orn][dL][Dab][Cha]VTC[Dab][Aun]-OH; thioether N-14) | 22.3 |
| CC(C)C[C@H]1NC(=O)[C@H](CCCN)NC(=O)[C@H](Cc2ccc(OCC(=O)O)cc2)NC(=O)[C@H](Cc2ccc(-c3ccccc3)cc2)NC(=O)[C@H](Cc2ccc(O)cc2)NC(=O)[C@H](Cc2ccc(O)c(F)c2)NC(=O)[C@H](CC(=O)O)NC(=O)[C@H](Cc2ccc(OCC(=O)O)cc2)NC(=O)[C@H](CCCNC(=N)N)NC(=O)CSC[C@@H](C(=O)N[C@@H](CCN)C(=O)NCCCCCCCCCCC(=O)O)NC(=O)[C@H]([C@@H](C)O)NC(=O)[C@H](C(C)C)NC(=O)[C@H](CC2CCCCC2)NC(=O)[C@H](CCN)NC1=O [Compound 2105] ({CH2CO}-RY(Carboxymethyl)D[Tyr(3-F)]Y[Bip]Y(Carboxymethyl)[Orn][dL][Dab][Cha]VTC[Dab][Aun]-OH; thioether N-14) | 113 |
| Cc1cc(C[C@@H]2NC(=O)[C@H](CC(=O)O)NC(=O)[C@H](Cc3ccc(OCC(=O)O)cc3)NC(=O)[C@H](CCCNC(=N)N)NC(=O)CSC[C@@H](C(=O)N[C@@H](CCN)C(=O)NCCCCCCCCCCC(=O)O)NC(=O)[C@H]([C@@H](C)O)NC(=O)[C@H](C(C)C)NC(=O)[C@H](CC3CCCCC3)NC(=O)[C@H](CCN)NC(=O)[C@@H](CC(C)C)NC(=O)[C@H](CCCN)NC(=O)[C@H](Cc3ccc(OCC(=O)O)cc3)NC(=O)[C@H](Cc3ccc(-c4ccccc4)cc3)NC(=O)[C@H](Cc3ccc(O)cc3)NC2=O)ccc1O [Compound 2106] ({CH2CO}-RY(Carboxymethyl)D[Tyr(3-Me)]Y[Bip]Y(Carboxymethyl)[Orn][dL][Dab][Cha]VTC[Dab][Aun]-OH; thioether N-14) | 15.9 |
| CC(C)C[C@H]1NC(=O)[C@H](CCCN)NC(=O)[C@H](Cc2ccc(OCC(=O)O)cc2)NC(=O)[C@H](Cc2ccc(-c3ccccc3)cc2)NC(=O)[C@H](Cc2ccc(O)cc2)NC(=O)[C@H](Cc2ccc(O)c(F)c2)NC(=O)[C@H](CC(=O)O)NC(=O)[C@H](Cc2ccc(OCC(=O)O)cc2)NC(=O)[C@H](CN)NC(=O)CSC[C@@H](C(=O)N[C@@H](CCN)C(=O)NCCCCCCCCCCC(=O)O)NC(=O)[C@H]([C@@H](C)O)NC(=O)[C@H](C(C)C)NC(=O)[C@H](CC2CCCCC2)NC(=O)[C@H](CCN)NC1=O [Compound 2107] ({CH2CO}-[Dap]Y(Carboxymethyl)D[Tyr(3-F)]Y[Bip]Y(Carboxymethyl)[Orn][dL][Dab][Cha]VTC[Dab][Aun]-OH; thioether N-14) | 116 |
